Results: patent US11945798B2, “Substituted aminopyridine compounds as EGFR inhibitors” (YUHAN CORPORATION, priority 2021, dated 2024)

Columns and labels:
EGFR del19/C797S = EGFR del19/C797S (Homo sapiens, UniProt P00533, C797S/DEL746-750); assay: Biochemical EGFR kinase assay (Lance Ultra TR-FRET), del19/C797S; settings: Km ATP; read-out: IC50 del19/C797S (nM) Km ATP
Protocol: (§1) Biochemical EGFR kinase assays were conducted using Lance Ultra time-resolved fluorescence resonance energy transfer (TR-FRET) technology from Perkin-Elmer. Compounds of the invention were initially diluted to 20 mM in 100% DMSO for storage and made into kinase buffer solution to create a compound concentration ranging from 0.003 μM and 10 μM.
(§2) Each kinase reactions were incubated at room temperature for 1 hour and then stopped by the addition of 4 μL of stop solution (10 mM EDTA). The specific Europium-labeled-anti-phosphopeptide antibody (PerkinElmer, AD0069) diluted in LANCE detection buffer was then added to a final concentration of 2 nM. After 60 minutes incubation at room temperature the LANCE signal was measured on an EnVision Multilabel Reader (Perkin-Elmer). Excitation wavelength was set at 320 nm and emission monitored at 615 nm (donor) and 665 nm (acceptor). The IC50 values were determined using GraphPad prism software (GraphPad Software, Inc., San Diego, CA, USA).

EGFR L858R/T790M/C797S = EGFR L858R/T790M/C797S (Homo sapiens, UniProt P00533, C797S/L858R/T790M); assay: Biochemical EGFR kinase assay (Lance Ultra TR-FRET), L858R/T790M/C797S; settings: Km ATP; read-out: IC50 L858R/T790M/C797S (nM) Km ATP
EGFR L858R/T790M/C797S, sequence (P00533 25-1210 T790M/C797S/L858R): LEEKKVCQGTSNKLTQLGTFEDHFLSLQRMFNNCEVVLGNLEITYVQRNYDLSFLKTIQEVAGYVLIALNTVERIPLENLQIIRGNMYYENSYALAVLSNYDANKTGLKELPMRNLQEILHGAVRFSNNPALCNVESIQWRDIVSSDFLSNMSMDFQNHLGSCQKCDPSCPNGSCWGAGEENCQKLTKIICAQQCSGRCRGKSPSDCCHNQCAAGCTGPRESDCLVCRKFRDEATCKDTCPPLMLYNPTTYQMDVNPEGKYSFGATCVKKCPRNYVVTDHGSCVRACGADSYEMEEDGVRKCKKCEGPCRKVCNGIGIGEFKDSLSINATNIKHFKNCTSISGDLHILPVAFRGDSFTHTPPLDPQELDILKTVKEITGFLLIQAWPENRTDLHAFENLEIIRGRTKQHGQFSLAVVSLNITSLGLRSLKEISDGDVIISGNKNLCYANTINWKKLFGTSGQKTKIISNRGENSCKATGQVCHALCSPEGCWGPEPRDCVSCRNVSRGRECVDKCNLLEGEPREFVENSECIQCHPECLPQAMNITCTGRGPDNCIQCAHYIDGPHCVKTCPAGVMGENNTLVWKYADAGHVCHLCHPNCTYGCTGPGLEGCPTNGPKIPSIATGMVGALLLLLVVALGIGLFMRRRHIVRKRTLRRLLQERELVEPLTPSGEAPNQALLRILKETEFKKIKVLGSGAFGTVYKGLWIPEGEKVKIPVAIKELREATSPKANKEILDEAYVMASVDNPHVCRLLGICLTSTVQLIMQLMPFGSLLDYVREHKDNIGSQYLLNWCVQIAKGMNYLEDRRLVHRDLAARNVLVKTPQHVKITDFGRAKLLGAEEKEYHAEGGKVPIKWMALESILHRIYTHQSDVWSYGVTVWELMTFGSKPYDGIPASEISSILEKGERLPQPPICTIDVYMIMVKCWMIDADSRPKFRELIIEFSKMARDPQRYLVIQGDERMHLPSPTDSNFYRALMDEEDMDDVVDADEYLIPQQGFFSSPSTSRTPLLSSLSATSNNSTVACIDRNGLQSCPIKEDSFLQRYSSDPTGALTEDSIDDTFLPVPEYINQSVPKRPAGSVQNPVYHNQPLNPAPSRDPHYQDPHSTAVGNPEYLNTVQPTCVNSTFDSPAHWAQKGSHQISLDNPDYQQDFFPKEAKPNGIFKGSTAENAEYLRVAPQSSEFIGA
Protocol: as §1, §2

EGFR wildtype (WT) = EGFR wildtype (WT) (Homo sapiens, UniProt P00533); assay: Biochemical EGFR kinase assay (Lance Ultra TR-FRET), wildtype; settings: Km ATP; read-out: IC50 WT (nM) Km ATP
EGFR wildtype (WT), sequence (P00533 25-1210): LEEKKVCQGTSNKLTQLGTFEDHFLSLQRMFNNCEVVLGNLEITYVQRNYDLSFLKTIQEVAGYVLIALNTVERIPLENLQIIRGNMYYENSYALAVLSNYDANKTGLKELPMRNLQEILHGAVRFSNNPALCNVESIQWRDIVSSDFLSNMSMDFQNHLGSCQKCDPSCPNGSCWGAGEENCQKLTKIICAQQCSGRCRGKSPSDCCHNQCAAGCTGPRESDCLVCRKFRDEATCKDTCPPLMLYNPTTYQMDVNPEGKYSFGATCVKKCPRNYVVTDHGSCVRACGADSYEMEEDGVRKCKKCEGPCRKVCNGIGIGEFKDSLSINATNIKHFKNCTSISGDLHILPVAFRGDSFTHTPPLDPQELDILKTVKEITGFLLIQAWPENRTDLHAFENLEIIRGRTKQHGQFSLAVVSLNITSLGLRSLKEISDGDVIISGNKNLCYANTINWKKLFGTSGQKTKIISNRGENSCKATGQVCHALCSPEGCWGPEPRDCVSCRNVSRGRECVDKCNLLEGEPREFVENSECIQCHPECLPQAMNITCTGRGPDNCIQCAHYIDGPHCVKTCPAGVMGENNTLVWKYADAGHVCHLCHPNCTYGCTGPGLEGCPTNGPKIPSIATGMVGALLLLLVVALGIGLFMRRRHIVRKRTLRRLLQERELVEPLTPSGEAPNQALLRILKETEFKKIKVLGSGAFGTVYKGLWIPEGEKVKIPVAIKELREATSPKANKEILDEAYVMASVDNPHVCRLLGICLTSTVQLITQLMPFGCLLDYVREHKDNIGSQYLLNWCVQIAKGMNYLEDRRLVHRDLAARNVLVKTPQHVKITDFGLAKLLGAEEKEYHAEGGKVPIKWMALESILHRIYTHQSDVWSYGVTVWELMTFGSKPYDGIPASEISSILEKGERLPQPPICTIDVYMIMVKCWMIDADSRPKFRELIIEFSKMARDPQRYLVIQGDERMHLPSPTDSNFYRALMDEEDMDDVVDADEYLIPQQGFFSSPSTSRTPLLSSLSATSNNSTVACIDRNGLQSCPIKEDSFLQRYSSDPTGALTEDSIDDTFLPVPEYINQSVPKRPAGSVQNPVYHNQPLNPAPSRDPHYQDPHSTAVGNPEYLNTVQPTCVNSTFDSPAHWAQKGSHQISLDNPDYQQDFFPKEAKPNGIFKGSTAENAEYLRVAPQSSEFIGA
Protocol: as §1, §2

EGFR del19/T790M/C797S = EGFR del19/T790M/C797S (Homo sapiens, UniProt P00533, C797S/DEL746-750/T790M); assay: Biochemical EGFR kinase assay (Lance Ultra TR-FRET), del19/T790M/C797S; settings: Km ATP; read-out: IC50 del19/T790M/C797S (nM) Km ATP
EGFR del19/T790M/C797S, sequence (P00533 with tags, fused parts or gaps DEL746-750/T790M/C797S): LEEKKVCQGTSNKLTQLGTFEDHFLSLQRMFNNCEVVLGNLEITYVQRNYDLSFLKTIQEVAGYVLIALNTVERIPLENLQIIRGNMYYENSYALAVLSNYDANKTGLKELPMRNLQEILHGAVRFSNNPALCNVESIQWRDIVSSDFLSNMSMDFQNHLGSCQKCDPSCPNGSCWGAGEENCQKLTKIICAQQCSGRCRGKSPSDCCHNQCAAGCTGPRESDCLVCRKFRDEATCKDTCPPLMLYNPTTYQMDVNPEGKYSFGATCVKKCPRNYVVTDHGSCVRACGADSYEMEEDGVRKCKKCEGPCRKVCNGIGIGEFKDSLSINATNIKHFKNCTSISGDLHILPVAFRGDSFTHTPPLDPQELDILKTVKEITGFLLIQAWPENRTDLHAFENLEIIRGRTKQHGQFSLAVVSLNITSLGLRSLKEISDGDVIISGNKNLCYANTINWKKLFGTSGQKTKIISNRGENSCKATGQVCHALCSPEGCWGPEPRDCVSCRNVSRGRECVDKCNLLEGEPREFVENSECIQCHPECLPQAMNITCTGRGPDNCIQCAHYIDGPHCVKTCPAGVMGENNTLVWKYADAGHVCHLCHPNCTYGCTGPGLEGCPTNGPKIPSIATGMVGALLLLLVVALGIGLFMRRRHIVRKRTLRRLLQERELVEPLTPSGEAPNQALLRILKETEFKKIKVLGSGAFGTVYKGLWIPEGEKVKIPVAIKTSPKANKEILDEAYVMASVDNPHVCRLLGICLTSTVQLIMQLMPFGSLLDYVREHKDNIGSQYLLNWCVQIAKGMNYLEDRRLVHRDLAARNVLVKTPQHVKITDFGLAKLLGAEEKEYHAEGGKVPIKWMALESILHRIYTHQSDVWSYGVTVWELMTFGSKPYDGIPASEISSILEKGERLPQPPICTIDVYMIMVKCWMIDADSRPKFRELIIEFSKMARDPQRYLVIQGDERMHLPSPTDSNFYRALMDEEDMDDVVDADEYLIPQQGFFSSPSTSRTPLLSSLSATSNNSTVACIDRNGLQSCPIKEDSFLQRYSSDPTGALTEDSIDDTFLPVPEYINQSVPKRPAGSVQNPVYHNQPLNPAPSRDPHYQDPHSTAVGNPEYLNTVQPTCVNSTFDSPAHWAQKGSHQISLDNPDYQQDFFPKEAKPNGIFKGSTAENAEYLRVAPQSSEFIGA
Protocol: as §1, §2

EGFR del19/C797S, sequence (P00533 with tags, fused parts or gaps DEL746-750/C797S): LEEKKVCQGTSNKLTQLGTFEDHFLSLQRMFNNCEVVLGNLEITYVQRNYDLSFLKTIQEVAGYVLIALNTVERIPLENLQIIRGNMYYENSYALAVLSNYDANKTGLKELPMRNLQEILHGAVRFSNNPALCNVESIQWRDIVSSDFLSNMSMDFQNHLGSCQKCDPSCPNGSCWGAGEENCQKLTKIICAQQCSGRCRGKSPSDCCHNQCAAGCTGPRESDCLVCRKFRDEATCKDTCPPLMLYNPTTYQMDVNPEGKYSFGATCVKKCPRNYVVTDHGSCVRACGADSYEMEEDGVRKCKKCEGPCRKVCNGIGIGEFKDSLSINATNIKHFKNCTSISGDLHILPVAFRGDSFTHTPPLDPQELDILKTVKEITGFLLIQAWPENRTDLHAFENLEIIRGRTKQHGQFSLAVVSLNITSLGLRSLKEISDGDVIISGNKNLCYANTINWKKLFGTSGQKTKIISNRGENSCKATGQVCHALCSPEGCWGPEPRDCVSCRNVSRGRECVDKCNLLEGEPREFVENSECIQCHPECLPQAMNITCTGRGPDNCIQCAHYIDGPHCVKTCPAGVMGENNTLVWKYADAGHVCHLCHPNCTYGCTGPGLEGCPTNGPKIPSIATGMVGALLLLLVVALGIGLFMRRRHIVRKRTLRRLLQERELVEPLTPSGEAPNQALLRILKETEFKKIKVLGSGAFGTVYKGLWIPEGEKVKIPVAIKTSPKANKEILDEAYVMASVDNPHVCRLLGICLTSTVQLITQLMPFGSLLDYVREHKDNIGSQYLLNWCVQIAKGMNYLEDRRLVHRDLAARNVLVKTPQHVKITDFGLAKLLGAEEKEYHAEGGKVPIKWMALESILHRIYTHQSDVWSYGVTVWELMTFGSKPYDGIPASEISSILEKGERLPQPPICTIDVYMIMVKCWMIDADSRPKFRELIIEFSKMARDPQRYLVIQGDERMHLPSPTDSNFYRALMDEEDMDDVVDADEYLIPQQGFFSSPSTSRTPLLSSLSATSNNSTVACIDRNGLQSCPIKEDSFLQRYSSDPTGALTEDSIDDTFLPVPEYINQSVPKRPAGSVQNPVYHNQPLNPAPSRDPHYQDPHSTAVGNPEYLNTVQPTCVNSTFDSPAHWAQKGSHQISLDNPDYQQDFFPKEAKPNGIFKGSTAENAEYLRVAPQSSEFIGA

IC50 (EGFR del19/C797S) [nM]	IC50 (EGFR L858R/T790M/C797S) [nM]	IC50 (EGFR wildtype (WT)) [nM]	IC50 (EGFR del19/T790M/C797S) [nM]	Structure (SMILES)
52.5	5.8	389	0.7	CC(=O)c1cnc(Nc2ccnc(-c3cnn(S(=O)(=O)C4CC4)c3)n2)cc1OC[C@H]1CC[C@H](CN(C)C)CC1 [Example 65, 1-(6-((2-(1-(Cyclopropylsulfonyl)-1H-pyrazol-4-yl)pyrimidin-4-yl)amino)-4-(((1r,4r)-4-((dimethylamino)methyl)cyclohexyl)methoxy)pyridin-3-yl)ethan-1-one]
242		796	9	O=C(c1cnc(Nc2ccnc(-c3cnn(S(=O)(=O)C4CC4)c3)n2)cc1NC[C@H]1CC[C@H](Cn2cccn2)CC1)C1CC1 [Example 44, (4-((((1r,4r)-4-((1H-Pyrazol-1-yl)methyl)cyclohexyl)methyl)amino)-6-((2-(1-(cyclopropylsulfonyl)-1H-pyrazol-4-yl)pyrimidin-4-yl)amino)pyridin-3-yl)(cyclopropyl)methanone]
225		1140	14.9	CC(C)Nc1cc(Nc2ccnc(-c3cnn(S(=O)(=O)C4CC4)c3)n2)ncc1C(=O)NCC(F)F [Example 78, 6-((2-(1-(Cyclopropylsulfonyl)-1H-pyrazol-4-yl)pyrimidin-4-yl)amino)-N-(2,2-difluoroethyl)-4-(isopropylamino)nicotinamide]
24.6		76.2	2.8	CN(C)C[C@H]1CC[C@H](CNc2cc(Nc3ccnc(-c4cnn(S(=O)(=O)C5CC5)c4)n3)ncc2C(=O)N2CC(F)(F)C2)CC1 [Example 82, (6-((2-(1-(Cyclopropylsulfonyl)-1H-pyrazol-4-yl)pyrimidin-4-yl)amino)-4-((((1r,4r)-4-((dimethylamino)methyl)cyclohexyl)methyl)amino)pyridin-3-yl)(3,3-difluoroazetidin-1-yl)methanone]
205	3.1	751	0.9	CCCNc1cc(Nc2ccnc(-c3cnn(S(=O)(=O)C4CC4)c3)n2)ncc1C(C)=O [Example 45, 1-(6-((2-(1-(Cyclopropylsulfonyl)-1H-pyrazol-4-yl)pyrimidin-4-yl)amino)-4-(propylamino)pyridin-3-yl)ethan-1-one]
363	9.4		9.8	CN(C)CC1CCC(CNc2cc(Nc3ccnc(-c4cnn(C5CCOC5)c4)n3)ncc2C(=O)C2CC2)CC1 (centres unmarked) [Example 62, Cyclopropyl(4-((((1r,4r)-4-((dimethylamino)methyl)cyclohexyl)methyl)amino)-6-((2-(1-(tetrahydrofuran-3-yl)-1H-pyrazol-4-yl)pyrimidin-4-yl)amino)pyridin-3-yl)methanone]

The next lines start with the compound.

Structure (SMILES)	IC50 (EGFR del19/C797S) [nM]	IC50 (EGFR L858R/T790M/C797S) [nM]	IC50 (EGFR wildtype (WT)) [nM]	IC50 (EGFR del19/T790M/C797S) [nM]
O=C(c1cnc(Nc2ccnc(-c3cnn(S(=O)(=O)C4CC4)c3)n2)cc1NCCCC(F)F)C1CC1 [Example 5, Cyclopropyl(6-((2-(1-(cyclopropylsulfonyl)-1H-pyrazol-4-yl)pyrimidin-4-yl)amino)-4-((4,4-difluorobutyl)amino)pyridin-3-yl)methanone]	132	18	2970	1.8
O=C(c1cnc(Nc2ccnc(-c3cnn(S(=O)(=O)C4CC4)c3)n2)cc1NCCCCF)C1CC1 [Example 4, Cyclopropyl(6-((2-(1-(cyclopropylsulfonyl)-1H-pyrazol-4-yl)pyrimidin-4-yl)amino)-4-((4-fluorobutyl)amino)pyridin-3-yl)methanone]	83.6	11.6	2400	1.3
CC(O)C(C)(C)Nc1cc(Nc2ccnc(-c3cnn(S(=O)(=O)C4CC4)c3)n2)ncc1C(=O)C1CC1 (centres unmarked) [Example 12, Cyclopropyl(6-((2-(1-(cyclopropylsulfonyl)-1H-pyrazol-4-yl)pyrimidin-4-yl)amino)-4-((3-hydroxy-2-methylbutan-2-yl)amino)pyridin-3-yl)methanone]	58.2	0.6	228	0.4
O=C(c1cnc(Nc2ccnc(-c3cnn(S(=O)(=O)C4CC4)c3)n2)cc1NCC1CCN(CC2CC2)CC1)C1CC1 [Example 18, Cyclopropyl(4-(((1-(cyclopropylmethyl)piperidin-4-yl)methyl)amino)-6-((2-(1-(cyclopropylsulfonyl)-1H-pyrazol-4-yl)pyrimidin-4-yl)amino)pyridin-3-yl)methanone]	1	17.2		13.5
O=C(c1cnc(Nc2ccnc(-c3cnn(S(=O)(=O)C4CC4)c3)n2)cc1NC1CC1)C1CC1 [Example 2, Cyclopropyl(4-(cyclopropylamino)-6-((2-(1-(cyclopropylsulfonyl)-1H-pyrazol-4-yl)pyrimidin-4-yl)amino)pyridin-3-yl)methanone]	536			72
O=C(c1cnc(Nc2ccnc(-c3cnn(S(=O)(=O)C4CC4)c3)n2)cc1NCC1CCCCO1)C1CC1 (centres unmarked) [Example 10, Cyclopropyl(6-((2-(1-(cyclopropylsulfonyl)-1H-pyrazol-4-yl)pyrimidin-4-yl)amino)-4-(((tetrahydro-2H-pyran-2-yl)methyl)amino)pyridin-3-yl)methanone]	553	13.7	1170	2.1
CN(C)CCNc1cc(Nc2ccnc(-c3cnn(S(=O)(=O)C4CC4)c3)n2)ncc1C(=O)C1CC1 [Example 14, Cyclopropyl(6-((2-(1-(cyclopropylsulfonyl)-1H-pyrazol-4-yl)pyrimidin-4-yl)amino)-4-((2-(dimethylamino)ethyl)amino)pyridin-3-yl)methanone]	459	31.9	3400	4.7
CN(C)Cc1ccc(CNc2cc(Nc3ccnc(-c4cnn(S(=O)(=O)C5CC5)c4)n3)ncc2C(=O)C2CC2)cn1 [Example 19, Cyclopropyl(6-((2-(1-(cyclopropylsulfonyl)-1H-pyrazol-4-yl)pyrimidin-4-yl)amino)-4-(((6-((dimethylamino)methyl)pyridin-3-yl)methyl)amino)pyridin-3-yl)methanone]	159	3.8	682	3.1
O=C(c1cnc(Nc2ccnc(-c3cnn(S(=O)(=O)C4CC4)c3)n2)cc1NCc1cnn(CCF)c1)C1CC1 [Example 17, Cyclopropyl(6-((2-(1-(cyclopropylsulfonyl)-1H-pyrazol-4-yl)pyrimidin-4-yl)amino)-4-(((1-(2-fluoroethyl)-1H-pyrazol-4-yl)methyl)amino)pyridin-3-yl)methanone]	1	15.5		10.9
CC(C)Oc1cc(Nc2ccnc(-c3cnn(S(=O)(=O)C4CC4)c3)n2)ncc1NC(=O)C1CC1 [Example 42, N-(6-((2-(1-(Cyclopropylsulfonyl)-1H-pyrazol-4-yl)pyrimidin-4-yl)amino)-4-isopropoxypyridin-3-yl)cyclopropanecarboxamide]	213	10.5	123	1
